# In US10064909B2, “Compositions and methods for chronic use of a weight-gaining compound” (priority 2015, dated 2018):
# Several values for one entry are separate records, joined by “and”; a condition that tells them apart may be missing. Identical values can stand only once.
# Experiments:
# Format in all cases: in vivo
# [1] = Cat dose titration laboratory study (21 days): food consumption and bodyweight; conditions: cats; for Mean % Change (±SD) in Food Consumption Over 21 Days: Day 1-21 vs Days -3 to -1, listed as AT-002, L-tartrate; for Mean % Change (±SD) in Bodyweight Over 21 Days: Day 1 to Day 22
# Method: This study tested the effectiveness of an oral formulation of AT-002 in laboratory cats and to select a dose that would cause increased food intake and weight gain. This study investigated the effects of a capromorelin oral solution in cats dosed at 1 mg/kg, 2 mg/kg or 3 mg/kg compared to placebo (n=8/group) for 21 days. Food consumption was measured each day from Day −10 through Day 21. For each cat, baseline food consumption was calculated as the average of Days −3, −2 and −1. The percent change from baseline to treatment period was calculated as 100× (treatment period minus baseline)/baseline. Bodyweight was measured on Day 1, Day 8, Day 15 and Day 22. Baseline bodyweight was defined as the value collected on Day 1 (prior to treatment).
# [2] = Two-week oral toxicity study in cats
# Method: This study determined the safety of capromorelin when administered orally to cats. Groups of 3 male and 3 female (n=6/group) mixed breed cats were given capromorelin as an oral capsule once daily at doses of 9, 15, 30 and 60 mg/kg for 14 consecutive days. A similar group was given microcrystalline cellulose as a placebo control. All animals were observed daily for clinical signs and assessed for food consumption, with bodyweights recorded 7 days before dosing and again at euthanasia. Other measurements included periodic clinical pathology evaluations of hematology, serum chemistry and urinalysis. After the dosing period, cats were euthanized and necropsied.
# IGF-1 = test: 91-day cat safety study: serum IGF-1; conditions: cats, 6 mg/kg, compared to placebo controls; sustained, peak at Day 30
# Method: This controlled study included two treatment groups with 4 adult cats receiving placebo (Group 1) and 8 adult cats receiving capromorelin (Formulation #9, as described above) (Group 2) for 91 consecutive days. All cats were offered food daily for a 6-hour period following an 11-day acclimation phase. All cats were weighed on Days −11, −1, 1, 14, 30, 59, 75, and 91. On Days 1 through 91, animals were orally administered capromorelin once daily via syringe at dose levels of 0 or 6 mg/kg. At one hour post-dose, all cats were offered food for a 6-hour period. Variables of interest included weight gain/loss, food consumption, clinical pathology, and serum analysis of IGF-1 and GH.
# On Days 1, 30, 59, and 91, blood samples were collected prior to daily dose administration and at 8 hours post-dose and processed to serum for analysis of IGF-1 and GH levels. […] Serum chemistry parameters measured included albumin (ALB), creatine kinase (CK), albumin/globulin ratio (A\G), globulin (GLOB), alkaline phosphatase (ALP), glucose (GLU), fructosamine, alanine aminotransferase (ALT), blood urea nitrogen (BUN), phosphorus (PHOS), calcium (Ca), potassium (K), chloride (Cl), sodium (Na), cholesterol (CHOL), total protein (TP), creatinine (CRE), total bilirubin (TBIL), BUN/creatinine ratio, and sodium/potassium ratio.
# [3] = Capromorelin efficacy in cats for 21 days: food consumption and bodyweight; conditions: for mean food intake increase over baseline: Day 1 to Day 21 vs Days -3 to -1
# Method: Thirty-two cats (16 neutered males, 16 females) were divided into 4 treatment groups including 4 animals of each sex per group. The cats were acclimated to the study environment for 10 days prior to study start. All cats were orally dosed with placebo (Group 1) or capromorelin (30 mg/ml oral solution, Formulation 9 as described above) at 1 mg/kg (Group 2), 2 mg/kg (Group 3) or 3 mg/kg (Group 4), for 21 days, with dosing starting on Day 1. Physical examinations were performed on Day −10 and general health observations made daily. Body weights were evaluated on Days −10, −8, −1, 1, 8, 15 and 22 days. Cats were fed about 1 hour after dosing. Commercial dry cat food (300 g) was provided for 5 hours and then removed and the amount of food consumed (g) calculated per cat. On Days 1, 14 and 21, blood samples were collected prior to daily dose administration and at 8 hours post-dose and serum processed for measurement of IGF-1 levels.
# On Day 12, two study animals (one male each from Groups 1 and 4) were removed for reasons unrelated to the study and were not included in the data analysis. Cat 4M4 in the 3 mg/kg group lost significant weight during the first 8 days of treatment—then rebounded and began to gain the weight back. Statistical analysis for weight gain was completed with and without this cat's (4M4) data included.
# [4] = Dose titration laboratory study (10 days): capromorelin serum levels; conditions: cats
# Method: This study defined a capromorelin oral solution dose regime that provides increased food intake and weight gain and the accompanying desired profile of IGF-1 serum levels. Laboratory adult cats were housed individually and divided into five groups (3/sex/group; n=6/group). Cats were dosed once daily for 10 consecutive days with either placebo, 1 mg/kg AT-002, 2 mg/kg AT-002, 3 mg/kg AT-002 or 4 mg/kg AT-002. The test article was a flavored solution formulation very similar to the final formulation. Study activities are summarized at Table 5.
structure (smiles),measurement,setting,value
"CN1N=C2CCN(C(=O)[C@@H](COCc3ccccc3)NC(=O)C(C)(C)N)C[C@@]2(Cc2ccccc2)C1=O.O=C(O)C(O)C(O)C(=O)O [capromorelin, N-[(2R)-1-[(3aR)-2-methyl-3-oxo-3a-(phenylmethyl)-6,7-dihydro-4H-pyrazolo[4,3-c]pyridin-5-yl]-1-oxo-3-(phenylmethoxy)propan-2-yl]-2-amino-2-methylpropanamide L-tartrate]",Mean % Change (±SD) in Food Consumption Over 21 Days,"[1]; 1 mg/kg, 1 mg/kg",25.3% and 25.32 ± 16.70%
same,Mean % Change (±SD) in Bodyweight Over 21 Days,[1]; 1 mg/kg,5.41 ± 4.11%
same,Mean % Change (±SD) in Food Consumption Over 21 Days,"[1]; 2 mg/kg, 2 mg/kg",45.7% and 45.67 ± 24.39%
same,Mean % Change (±SD) in Bodyweight Over 21 Days,[1]; 2 mg/kg,6.61 ± 5.05%
same,Mean % Change (±SD) in Food Consumption Over 21 Days,"[1]; 3 mg/kg, 3 mg/kg",29.6% and 29.59 ± 13.65%
same,Mean % Change (±SD) in Bodyweight Over 21 Days,[1]; 3 mg/kg,3.92 ± 5.15%
same,NOAEL at 14 days,"[2]; both sexes, mixed breed, cat, in vivo, cats, oral capsule once daily, 14 days, read-out: no-observed-adverse-effect-level (NOAEL)",15 mg/kg/day
same,30 mg/kg dose level relative to proposed clinically effective dose,[2]; cats,15 times
same,clinical pathology changes,"[2]; cats, 15 to 60 mg/kg dosing groups, sporadic",increases in serum and urine glucose
same,clinical signs related to capromorelin,"[2]; cats, 30 and 60 mg/kg treatment groups","emesis, sporadic salivation, and lethargy/depression"
same,tissue findings at necropsy (gross and microscopic),"[2]; cats, 14 days",not associated with any abnormal tissue findings
same,tolerability,"[2]; cats, oral capsule 9, 15, 30 and 60 mg/kg, 14 days",well tolerated
same,mean absolute and relative liver weights,"[2]; females 30 and 60 mg/kg, absolute liver weights in males at all dosages",increased
same,IGF-1 following treatment,IGF-1,increased
same,mean percent bodyweight change,"[3]; 1 mg/kg (Group 2), Day 15",4.24%
same,mean percent bodyweight change,"[3]; 1 mg/kg (Group 2), Day 22 (21-day exposure)",5.41%
same,mean food intake increase over baseline,[3]; 1 mg/kg oral (Group 2),25.32%
same,mean percent bodyweight change,"[3]; 2 mg/kg (Group 3), Day 8",3.23%
same,mean percent bodyweight change,"[3]; 2 mg/kg (Group 3), Day 15",5.97%
same,mean percent bodyweight change,"[3]; 2 mg/kg (Group 3), Day 22 (21-day exposure)",6.61%
same,mean food intake increase over baseline,[3]; 2 mg/kg oral (Group 3),45.67%
same,mean food consumption change from baseline,"[3]; 2 mg/kg, interval Day 8 through Day 14",54.42%
same,mean percent bodyweight change,"[3]; 3 mg/kg (Group 4), 21-day exposure",3.92%
same,mean food intake increase over baseline,[3]; 3 mg/kg oral (Group 4),29.59%
same,capromorelin accumulation in serum,[4]; 10 days once daily,no evidence of capromorelin accumulation
same,capromorelin serum concentrations by 8 hours post-dose,[4]; all AT-002 treated groups,very low levels
same,absorption,[4]; oral flavored solution,well absorbed
same,time of maximum serum concentrations,"[4]; oral solution 1-4 mg/kg, post-dose",≤ 30 min
